# Legend:
# [1] = test system: MV4-11 Human acute myelogenous leukemia; assay: MTT cell proliferation inhibition, MV4-11; assay type: cell-based; details: MV4-11, 72 hours
# Method: (§1) Human cancer cells were purchased from ATCC. The cells were cultured in a culture medium according to the work instruction of ATCC. A dose-response curve was drawn by XL-fitting to determine an IC50 value of a compound. […] Cell proliferation inhibition could be detected by a MTT method (3-(4,5-Dimethylthiazol-2-yl)-2,5-diphenyltetrazolium bromide, and MTT; and 3-(4,5-dimethyl thiazole-2)-2,5-diphenyltertazolium bromide, and thiazolyl blue).
# (§2) The cells were cultured in a culture dish first, and the cells in a logarithmic growth phase were inoculated into a 96-well plate (3,000 to 5,000 adherent cells/well, 10,000 to 30,000 suspended cells/well) according to a specific number, with 100 microliters per well, and then cultured in an incubator of 5% CO2 and 37° C. […] An absorbance of a general control group should be a normal value between 0.8 and 1.2. After obtaining absorbance data, a change curve of an inhibition rate was fitted by GraphPad Prism6.03 software and an IC50 value was calculated.
# (§3) Calculation of drug inhibition rate: relative cell proliferation inhibition rate=[(control group A570−experimental group A570)/control group […], wherein A570 represented the absorbance at 570 nm.
# [2] = test system: TT Human medullary thyroid cancer; assay: MTT cell proliferation inhibition, TT; assay type: cell-based; details: 72 hours
# Method: as §1, §2, §3
# [3] = test system: HL-60 Human acute myelogenous leukemia; assay: MTT cell proliferation inhibition, HL-60; assay type: cell-based; details: HL-60, 72 hours
# Method: as §1, §2, §3
# [4] = test system: HT1080 Human fibrosarcoma cells; assay: MTT cell proliferation inhibition, HT1080; assay type: cell-based; details: HT-1080, HT1080, 72 hours
# Method: as §1, §2, §3
# [5] = target: T1, Ret (V804M) (h) (Homo sapiens, UniProt P07949, V804M); assay: Radioisotope labeling kinase assay (Eurofins), Ret (V804M); assay type: biochemical
# T1 construct: purchased Eurofins
# Method: An activity to a human recombinant protein kinase of a series of compounds was determined by a radioisotope labeling method, which was provided by Eurofins Company. A compound to be detected was mixed with a corresponding protein kinase buffer (20 mM propyl sulfonate (MOPS, […].), 1 mM EDTA, 0.10 β-mercaptoethanol, 0.010 Brij-35, […], and 1 mg/mL BSA), the mixture was added into a reaction system (100 μM reaction substrate […], 8 mM MOPS with a pH value of 7.0, 10 mM MgAcetate, 0.2 mM EDTA, and a certain concentration of γ-^33P-ATP). After adding an MgATP composite solution, the reaction was started at room temperature for 40 minutes, and the reaction was terminated by adding 5 μl of […] solution. Then, 10 μl of reaction solution was dropwise added onto a filter and washed with 75 mM phosphoric acid solution for three times, 5 minutes each time, then washed with methanol once again, and dried and subjected to scintillation counting.
# T1 sequence (P07949 29-1114 V804M): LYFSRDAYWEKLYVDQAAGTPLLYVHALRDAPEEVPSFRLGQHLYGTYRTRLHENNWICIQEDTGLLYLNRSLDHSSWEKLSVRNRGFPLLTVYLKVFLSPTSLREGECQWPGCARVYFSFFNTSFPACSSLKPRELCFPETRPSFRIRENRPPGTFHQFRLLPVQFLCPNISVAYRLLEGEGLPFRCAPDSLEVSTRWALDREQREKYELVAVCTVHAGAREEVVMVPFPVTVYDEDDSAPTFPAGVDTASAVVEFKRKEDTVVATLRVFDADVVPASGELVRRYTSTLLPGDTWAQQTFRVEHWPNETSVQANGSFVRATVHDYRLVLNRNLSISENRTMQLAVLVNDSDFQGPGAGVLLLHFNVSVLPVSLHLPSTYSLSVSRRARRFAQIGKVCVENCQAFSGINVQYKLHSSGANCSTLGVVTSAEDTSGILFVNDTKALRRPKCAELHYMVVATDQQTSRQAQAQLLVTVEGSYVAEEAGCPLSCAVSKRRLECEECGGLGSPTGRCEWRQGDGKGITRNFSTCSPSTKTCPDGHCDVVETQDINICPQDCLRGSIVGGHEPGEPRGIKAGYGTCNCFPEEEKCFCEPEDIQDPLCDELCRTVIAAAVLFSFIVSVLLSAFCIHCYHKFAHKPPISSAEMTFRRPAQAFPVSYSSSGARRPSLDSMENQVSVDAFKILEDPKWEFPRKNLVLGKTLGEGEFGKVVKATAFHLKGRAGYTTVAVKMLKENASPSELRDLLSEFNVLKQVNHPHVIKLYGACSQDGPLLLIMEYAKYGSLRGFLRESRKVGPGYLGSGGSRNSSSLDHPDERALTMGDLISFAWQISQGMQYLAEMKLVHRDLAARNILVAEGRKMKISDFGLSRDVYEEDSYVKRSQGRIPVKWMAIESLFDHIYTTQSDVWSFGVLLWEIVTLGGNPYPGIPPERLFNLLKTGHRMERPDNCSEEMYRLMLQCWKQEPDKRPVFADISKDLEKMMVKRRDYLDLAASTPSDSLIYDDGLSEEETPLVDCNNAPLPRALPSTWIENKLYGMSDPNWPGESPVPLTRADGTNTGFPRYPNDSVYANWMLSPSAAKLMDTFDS
IC50 [1] [nM],IC50 [2] [nM],IC50 [3] [nM],IC50 [4] [nM],IC50 [5] [nM],SMILES
30,143,326,706,,O=C(/C=C/CN1CCCC1)Nc1cc2cc(c1)Nc1nccc(n1)-c1cccc(c1)COC/C=C/COC2 [XVI-1]
87,1470,866,1580,,O=C(/C=C/CN1CCOCC1)Nc1cc2cc(c1)Nc1nccc(n1)-c1cccc(c1)COC/C=C/COC2 [XVI-3]
,,,,122,C1=C/COCc2cccc(c2)-c2ccnc(n2)Nc2cc(cc(OC/C=C/CN3CCCC3)c2)COC/1 [XVI-12]
